Laboratory results published in patent US5486541A (Teva Pharmaceutical Industries, Ltd., priority 1991, dated 1996).
Entries after “also recorded” stand apart in the source; their conditions may differ. Like-named read-outs stand apart in the source and are kept apart here.

Tests used:
[1] = tested on: MAO-B; assay: Inhibition of MAO Activity Ex-vivo: Acute Treatment, liver, MAO-B; assay type: in vivo, rat (male Sprague-Dawley derived); conditions: for ED-50 LIVER MAO-B: rat, ip or po, 2 hours after dosing; for LIVER MAO-A/MAO-B (measure of selectivity): ratio of ED-50 values, rat liver, ex vivo
Procedure: (§1) These experiments were performed essentially according to the protocol of K. F. Tipton and M. B. H. Youdim in CIBA Symposium No. 39, Editors: G. E. W. Wolstenholme and J. Knight, Elsevier, Amsterdam, 1976, pp. 393-403. The MAO enzyme source was a homogenate of rat brain in 0.3M sucrose which was centrifuged at 600 g for 15 minutes. The supernatant was diluted appropriately in 0.05M phosphate buffer and preincubated with serial dilutions of compounds of interest which are listed below for 20 minutes at 37° C. ^14 C-labeled substrates (2-phenylethylamine, hereinafter PEA; 5-hydroxytryptamine, hereinafter 5-HT) were then added and the incubation continued for a further 20 minutes (PEA) or 30-45 minutes (5-HT). Substrate concentrations used were 20 μM (PEA) or 1 mM (5-HT). In the case of PEA the enzyme concentration was chosen so that not more than 10% of the substrate was metabolized during the course of the reaction. The reaction was then stopped by the addition of tranylcypromine (to final concentration of 1 mM) and the incubate filtered over a small column of Amberlite CG-50; buffered to pH 6.3. The column was washed with 1.5 ml water, the eluates pooled and the radioactive content determined by liquid scintillation spectrometry. Since the amine substrates are totally retained on the column, radioactivity in the eluate indicates the production of neutral and acidic metabolites formed as a result of MAO activity. Activity of MAO in the sample was expressed as a percentage of control activity in the absence of inhibitors after subtraction of appropriate blank values. The activity determined using PEA as a substrate is referred to as MAO B activity, and that determined using 5-HT as a substrate is referred to as MAO A activity.
(§2) Rats (male Sprague-Dawley derived) weighing 250±20 g were treated with the desired compound by intraperitoneal injection (ip) or oral gavage (po) and decapitated 2 hours later. Groups of three rats were used for each dose level of the compound and MAO activity was determined in the brain and liver using the general technique described above. The amount of protein in each incubation was determined using the Folin-Lowry method, and enzyme activity was calculated as nmol substrate metabolized per hour incubation for each mg protein. Activity of MAO in tissues from animals treated with inhibitors was expressed as a percentage of the enzyme activity in a group of control animals which were administered the vehicle alone (water in the case of oral gavage, or 0.9% saline in the case of intraperitoneal injection) and killed as above.

[2] = tested on: MAO-A; assay: Inhibition of MAO Activity Ex-vivo: Acute Treatment, liver, MAO-A; assay type: in vivo, rat (male Sprague-Dawley derived); conditions: rat, ip or po, 2 hours after dosing
Procedure: as §1, §2

[3] = tested on: MAO-B; assay: Inhibition of MAO Activity Ex-vivo: Acute Treatment, brain, MAO-B; assay type: in vivo, rat (male Sprague-Dawley derived); conditions: for ED-50 BRAIN MAO-B: rat, ip or po, 2 hours after dosing; for BRAIN MAO-A/MAO-B (measure of selectivity): ratio of ED-50 values, rat brain, ex vivo
[4] = tested on: MAO-A; assay: Inhibition of MAO Activity Ex-vivo: Acute Treatment, brain, MAO-A; assay type: in vivo, rat (male Sprague-Dawley derived); conditions: rat, ip or po, 2 hours after dosing
[5] = target: T1, MAO-A (Rattus norvegicus, UniProt P21396); assay: biochemical; conditions: rat brain homogenate; 20 min preincubation at 37° C.; 5-HT 1 mM; read-out: IC50 for Inhibition of MAO-A in Brain Homogenates
T1 sequence (P21396 1-526): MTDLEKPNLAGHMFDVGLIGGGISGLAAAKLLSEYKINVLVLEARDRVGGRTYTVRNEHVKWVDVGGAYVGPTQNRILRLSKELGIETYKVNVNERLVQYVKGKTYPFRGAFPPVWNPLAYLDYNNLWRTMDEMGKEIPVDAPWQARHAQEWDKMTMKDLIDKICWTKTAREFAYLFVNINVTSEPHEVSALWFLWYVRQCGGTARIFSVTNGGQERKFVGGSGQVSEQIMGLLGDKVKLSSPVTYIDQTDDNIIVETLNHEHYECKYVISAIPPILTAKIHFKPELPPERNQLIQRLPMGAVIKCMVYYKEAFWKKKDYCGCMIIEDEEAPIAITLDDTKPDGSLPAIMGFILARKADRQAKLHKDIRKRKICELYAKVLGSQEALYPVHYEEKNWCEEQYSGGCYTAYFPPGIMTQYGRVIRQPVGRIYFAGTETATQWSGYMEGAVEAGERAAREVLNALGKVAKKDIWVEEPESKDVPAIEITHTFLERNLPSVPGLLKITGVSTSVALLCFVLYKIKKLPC

[6] = target: T2, MAO-B (Rattus norvegicus, UniProt P19643); assay: biochemical; assay type: biochemical; conditions: for IC50: 20 min preincubation at 37° C., PEA 20 μM, read-out: IC50 for Inhibition of MAO-B in Brain Homogenates
T2 sequence (P19643 1-520): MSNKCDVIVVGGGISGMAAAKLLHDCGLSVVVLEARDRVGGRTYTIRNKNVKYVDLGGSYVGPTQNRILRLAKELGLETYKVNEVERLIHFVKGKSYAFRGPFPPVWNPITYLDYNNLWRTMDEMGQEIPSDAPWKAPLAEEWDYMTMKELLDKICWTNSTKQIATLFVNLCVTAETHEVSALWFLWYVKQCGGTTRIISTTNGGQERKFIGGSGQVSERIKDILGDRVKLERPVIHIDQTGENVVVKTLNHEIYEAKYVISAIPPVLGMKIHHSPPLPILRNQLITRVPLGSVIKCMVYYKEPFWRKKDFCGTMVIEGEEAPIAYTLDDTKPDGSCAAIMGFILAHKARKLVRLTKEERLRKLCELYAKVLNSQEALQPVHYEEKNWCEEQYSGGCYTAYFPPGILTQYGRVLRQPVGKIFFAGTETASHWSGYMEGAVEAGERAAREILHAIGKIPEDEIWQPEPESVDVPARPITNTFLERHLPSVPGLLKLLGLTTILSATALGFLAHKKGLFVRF

[7] = tested on: blood pressure response to tyramine; assay: Tyramine Potentiation in Vivo (blood pressure response to tyramine); parameters: species or system rat; conditions: for Potentiation of blood pressure response to tyramine: compound 5 mg/kg orally, tyramine 20 mg/kg orally, ratio of areas under the curve of blood pressure
Procedure: On the previous day a tail artery cannulation was performed to enable direct blood pressure measurements. On the experimental day the cannulae were connected to pressure transducers. The animals were unrestrained and were kept in a glass sided open top tank during the pressure measurements. […] The desired compound was administered 30 minutes after the last dose of tyramine. Tyramine was administered again, in increasing doses, as described above, one hour after the desired compound was administered. […] The tyramine potentiating effect was calculated as a ratio between the areas under the curve of blood pressure measured with tyramine alone (20 mg/kg) and that measured after administration of the desired compounds and tyramine.

[8] = ratio IC50 MAO-A / IC50 MAO-B, rat brain homogenate

## C#CCNC1CCc2ccccc21 (centres unmarked) [H, N-propargyl-1-aminoindan, reference compound]
[1]
  ED-50 LIVER MAO-B: 0.06 mg/kg
[2]
  ED-50 LIVER MAO-A: 5 mg/kg
[3]
  ED-50 BRAIN MAO-B: 0.07 mg/kg
[4]
  ED-50 BRAIN MAO-A: 1.2 mg/kg

## C#CCNC1CCc2ccc(F)cc21 (centres unmarked) [Example 6-F, 6-Fluoro-1-propargylaminoindan]
[5]
  IC50: 4000 nM
[3]
  ED-50 BRAIN MAO-B: 0.13 mg/kg
  BRAIN MAO-A/MAO-B (measure of selectivity): 170
[6]; rat brain homogenate
  IC50: 6.2 nM
[6]; [8]
  Selectivity MAO-A/MAO-B (in vitro IC50): 645
[4]
  ED-50 BRAIN MAO-A: 22 mg/kg

## C#CCNC1CCc2cc(F)ccc21.Cl (single isomer, unassigned; (+)) [(+)-5-F, (+)-5-Fluoro-N-propargyl-1-aminoindan hydrochloride]
[1]
  ED-50 LIVER MAO-B: 0.07 mg/kg
  LIVER MAO-A/MAO-B (measure of selectivity): > 1.4
[5]
  IC50: 140 nM
[2]
  ED-50 LIVER MAO-A: > 0.1 mg/kg
[3]
  ED-50 BRAIN MAO-B: 0.07 mg/kg
  BRAIN MAO-A/MAO-B (measure of selectivity): > 1.4
[7]
  Potentiation of blood pressure response to tyramine: 2.25 fold
[6]; rat brain homogenate
  IC50: 5.7 nM
[6]; [8]
  Selectivity MAO-A/MAO-B (in vitro IC50): 24
[4]
  ED-50 BRAIN MAO-A: > 0.1 mg/kg

## C#CCNC1CCc2c(F)cccc21.Cl (centres unmarked) [Example 4-F, 4-Fluoro-N-propargyl-1-aminoindan hydrochloride]
[1]
  ED-50 LIVER MAO-B: 0.13 mg/kg
  LIVER MAO-A/MAO-B (measure of selectivity): 18.5
[5]
  IC50: 500 nM
[2]
  ED-50 LIVER MAO-A: 2.4 mg/kg
[3]
  ED-50 BRAIN MAO-B: 0.22 mg/kg
  BRAIN MAO-A/MAO-B (measure of selectivity): 6
[6]; rat brain homogenate
  IC50: 5.8 nM
[6]; [8]
  Selectivity MAO-A/MAO-B (in vitro IC50): 86
[4]
  ED-50 BRAIN MAO-A: 1.4 mg/kg

## C#CCNC1CCc2ccc(F)cc21.Cl (single isomer, unassigned; (-)) [(-)-6-F, (-)-6-Fluoro-N-propargyl-1-aminoindan hydrochloride]
[1]; hydrochloride, 120 min
  ED-50 LIVER MAO-B: < 0.5 mg/kg
[5]
  IC50: 40000 nM
[3]; hydrochloride, 120 min
  ED-50 BRAIN MAO-B: 0.45 mg/kg
[3]; hydrochloride
  BRAIN MAO-A/MAO-B (measure of selectivity): 51
[6]; rat brain homogenate
  IC50: 12000 nM
[6]; ratio IC50 MAO-A / IC50 MAO-B, rat brain homogenate, hydrochloride
  Selectivity MAO-A/MAO-B (in vitro IC50): 3
[4]; hydrochloride, 120 min
  ED-50 BRAIN MAO-A: 23 mg/kg

## C#CCNC1CCc2ccc(F)cc21.Cl (single isomer, unassigned; (+)) [(+)-6-F, (+)-6-Fluoro-N-propargyl-1-aminoindan hydrochloride]
[1]; hydrochloride, 120 min
  ED-50 LIVER MAO-B: 0.13 mg/kg
[1]
  LIVER MAO-A/MAO-B (measure of selectivity): 40
[5]
  IC50: 2800 nM
[2]
  ED-50 LIVER MAO-A: 5.2 mg/kg
[3]; hydrochloride, 120 min
  ED-50 BRAIN MAO-B: 0.14 mg/kg
[3]; listed as (+)-6-F-N-propargyl-1-aminoindan, hydrochloride, 120 min
  ED-50 BRAIN MAO-B: 0.14 mg/kg
[3]; hydrochloride
  BRAIN MAO-A/MAO-B (measure of selectivity): 152
[7]
  Potentiation of blood pressure response to tyramine: 1.2 fold
[7]; rat, 5 mg/kg oral, listed as (+)-6-F-N-propargyl-1-aminoindan, hydrochloride, 5 mg/kg
  tyramine potentiating effect (in words): lowest potentiating effect as compared to the (+)-5-F and (+)-4-F derivatives; also recorded: does not cause significant potentiation of tyramine; also recorded: a dose 35 times higher results practically in no tyramine potentiation
[6]
  Selectivity MAO-A/MAO-B (in vitro IC50): 1244
[6]; in vitro
  MAO-B selectivity in vitro (in words): much more selective than the parent non-fluorinated compound and more selective than the other fluorinated derivatives
[6]; rat brain homogenate
  IC50: 0.22 nM
[4]; hydrochloride, 120 min
  ED-50 BRAIN MAO-A: 21.3 mg/kg

## C#CCNC1CCc2ccc(Cl)cc21.Cl (centres unmarked) [Example 6-Cl, 6-Chloro-N-propargyl-1-aminoindan hydrochloride]
[5]
  IC50: 6900 nM
[3]
  ED-50 BRAIN MAO-B: 1.7 mg/kg
  BRAIN MAO-A/MAO-B (measure of selectivity): 5.8
[6]; rat brain homogenate
  IC50: 7.7 nM
[6]; [8]
  Selectivity MAO-A/MAO-B (in vitro IC50): 896
[4]
  ED-50 BRAIN MAO-A: 10 mg/kg

## C#CCNC1CCc2cc(F)ccc21.Cl (centres unmarked) [Example 5-F, 5-Fluoro-N-propargyl-1-aminoindan hydrochloride]
[1]
  ED-50 LIVER MAO-B: 0.06 mg/kg
  LIVER MAO-A/MAO-B (measure of selectivity): 36.7
[5]
  IC50: 700 nM
[2]
  ED-50 LIVER MAO-A: 2.2 mg/kg
[3]
  ED-50 BRAIN MAO-B: 0.4 mg/kg
  BRAIN MAO-A/MAO-B (measure of selectivity): 6
[6]; rat brain homogenate
  IC50: 6 nM
[6]; [8]
  Selectivity MAO-A/MAO-B (in vitro IC50): 116
[4]
  ED-50 BRAIN MAO-A: 2.3 mg/kg

## C#CCNC1CCc2c(F)cc(F)cc21 (single isomer, unassigned; (+)) [(+)-4,6-Difluoro]
[5]
  IC50: 800 nM
[3]
  ED-50 BRAIN MAO-B: 3.7 mg/kg
  BRAIN MAO-A/MAO-B (measure of selectivity): 1
[6]; rat brain homogenate
  IC50: 500 nM
[6]; [8]
  Selectivity MAO-A/MAO-B (in vitro IC50): 2
[4]
  ED-50 BRAIN MAO-A: 2.9 mg/kg

## NCCc1ccc(O)cc1 [Tyramine, reference compound]
[7]; tyramine alone, oral, 5, 10 and 20 mg/kg
  effect of tyramine alone on blood pressure (in words): caused increase of blood pressure
